According to patent US8609862B2, “Use of an adrenal hormone-modifying agent” (Novartis AG, priority 2010, dated 2013):

Key:
CYP11B2 = target: T1, CYP11B2 (Rattus norvegicus, UniProt P30099); assay: In vivo assay: plasma aldosterone concentration (PAC) in ACTH-infused conscious rats; conditions: ACTH infusion; for % Reduction from baseline PAC t = 1 h: 1 h after dosing; for % Reduction from baseline PAC 8 h: 8 h after dosing
T1 construct: from tissue; host or cells: whole animal: conscious male Sprague-Dawley rats under ACTH infusion (the adrenal gland as site of the enzyme comes from the background, b5)
T1 sequence (P30099 35-510): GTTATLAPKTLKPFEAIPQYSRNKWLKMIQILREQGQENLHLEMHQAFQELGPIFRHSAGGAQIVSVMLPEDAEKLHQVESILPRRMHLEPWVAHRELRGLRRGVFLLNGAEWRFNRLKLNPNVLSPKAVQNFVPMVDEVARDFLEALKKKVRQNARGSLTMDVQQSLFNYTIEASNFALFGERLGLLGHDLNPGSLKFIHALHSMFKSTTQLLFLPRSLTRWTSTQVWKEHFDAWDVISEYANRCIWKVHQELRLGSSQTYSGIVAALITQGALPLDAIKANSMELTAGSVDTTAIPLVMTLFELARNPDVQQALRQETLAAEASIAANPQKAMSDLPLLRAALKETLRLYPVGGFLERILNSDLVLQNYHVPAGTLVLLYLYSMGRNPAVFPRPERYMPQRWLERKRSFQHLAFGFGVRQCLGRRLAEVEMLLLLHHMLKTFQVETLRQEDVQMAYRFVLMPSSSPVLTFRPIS
Experimental: The in vivo effects of compounds on plasma aldosterone concentration (PAC) and plasma glucocorticoid (corticosterone) concentration (PCC) were evaluated in conscious rats.
Male Sprague-Dawley rats (˜400-600 g body weight) were surgically instrumented with a femoral arterial and venous catheter. The catheters were exteriorized from the lower back through a stainless steel spring and swivel system that enabled the rats to move freely at all times. Rats were allowed at least one week to recover from the surgery before initiating the experiments.
On the morning of the experiment, a pretreatment blood sample was collected on heparin from the arterial catheter. The blood samples were spun in a refrigerated centrifuge to generate plasma. The plasma was stored frozen at −70° C. until the later measurement of PAC and PCC (by radioimmunoassay). Adrenocorticotropic hormone (ACTH(1-24), referred to herein as ACTH) was then administered as an intravenous (i.v.) bolus (100 ng/kg) followed by a continuous i.v. infusion (30 ng/kg/min) for 9 hours. After one hour of infusion, a baseline (time 0) blood sample was withdrawn from the arterial catheter and processed and stored as described above. The rats were then dosed (typically 0.01 to 100 mg/kg) with the test compound p.o. by oral gavage or parenterally via the arterial catheter (i.a.). Compounds were formulated in an appropriate vehicle (e.g., water (p.o.) or saline (i.a.)) at a physiologically compatible volume (typically 1-2 ml/kg). Additional blood samples were withdrawn at 0.083 (i.a. only), 0.25, 0.5, 1, 2, 3, 4, 5, 6, 7, 8, and 24 hours after dosing with compound and processed and stored as above for later determination of PAC, PCC, and plasma compound concentration (by LC/MS/MS). Oral bioavailability and traditional pharmacokinetic (PK) parameters were estimated from the plasma compound concentrations.
Based on the plasma compound concentration at each dose, the PK/PD (pharmacodynamic) profiles (reduction of PAC and PCC) of each compound were determined.

Rat CYP11B2 = target: T2, Rat CYP11B2 (Rattus norvegicus, UniProt P30099); assay: In vitro rat CYP11B2 assay; format: biochemical; conditions: V79-4 cell homogenate, 11-deoxycorticosterone to aldosterone, SPA
T2 construct: made in house; host or cells: V79-4 cell line #305 (stably selected with geneticin and hygromycin); sonicated homogenate, 500 x g supernatant
T2 sequence (P30099 35-510): T1 sequence (P30099 35-510)
Experimental: Following 2 days of growth, cells are washed once with PBS, scraped and collected in PBS, and centrifuged at 1,300 rpm for 6 min. […] The sonication procedure is repeated 3 more times, with a 5 min incubation on ice between sonications. The sonicated material is then spun at 500×g for 4 min to remove unbroken cells. The supernatant is brought to a final glycerol concentration of 5%, flash-frozen in liquid nitrogen, and stored at −80° C.
The CYP11B2 assay is performed in 96-well U-bottom non-tissue-culture-treated plates. […] Plates are then centrifuged at 2,400 rpm for 6 min, and 100 μl of supernatant is removed for measurement of aldosterone content by scintillation proximity assay (SPA).
Measurement of aldosterone is performed using a 96-well plate format. […] Anti-mouse PVT SPA beads (50 μl) are then added to each well and incubated for 4 hr at room temperature prior to counting in a Microbeta plate counter. The amount of aldosterone in each sample is calculated by comparing with a standard curve generated using known quantities of the hormone.
Full concentration-response curves of an inhibitor are performed at least 3 times. The IC50 values are derived using a non-linear least squares curve-fitting program from DBS XLfit.

## N#Cc1ccc(C2CCCCc3cncn32)c(Br)c1 (racemic) [3-bromo-4-(6,7,8,9-tetrahydro-5H-imidazo[1,5-a]azepin-5-yl)benzonitrile racemate, 3-bromo-4-(6,7,8,9-tetrahydro-5H-imidazo[1,5-a]azepin-5-yl)benzonitrile]
CYP11B2; 10 mg/kg p.o.
  % Reduction from baseline PAC t = 1 h: 79%
  % Reduction from baseline PAC 8 h: 89%
Rat CYP11B2
  IC50: 1 nM

## N#Cc1ccc(C2CCCCc3cncn32)c(-c2ccc(F)cc2)c1 (single isomer, unassigned) [4′-fluoro-6-(6,7,8,9-tetrahydro-5H-imidazo[1,5-a]azepin-5-yl)biphenyl-3-carbonitrile]
CYP11B2; 3 mg/kg i.a.
  % Reduction from baseline PAC t = 1 h: 83%
  % Reduction from baseline PAC 8 h: 76%
Rat CYP11B2
  IC50: 1 nM

## COc1ccc(CN(C)C(=O)C2(c3ccc(C#N)cc3Cl)CCc3cncn32)cc1 (stereo not drawn) [5-(2-chloro-4-cyanophenyl)-N-(4-methoxybenzyl)-N-methyl-6,7-dihydro-5H-pyrrolo[1,2-c]imidazole-5-carboxamide]
CYP11B2; 30 mg/kg i.a.
  % Reduction from baseline PAC t = 1 h: 23%
  % Reduction from baseline PAC 8 h: 59%
Rat CYP11B2
  IC50: 5 nM
